From patent publication US10123540B1, “Disinfectant material” (PEN Inc., priority 2014, dated 2018)

How the values were obtained:
[1] = system: feline calcivirus ATCC VR-782; assay: Antiviral surface test, Modified ASTM E1053, limited to 10 minutes; settings: 20 mg/L in a water based solution applied to a surface; 10 minutes exposure; non-enveloped virus
Description: Copper ions (20 mg/L) in a water based solution were applied to a surface with the non-enveloped feline calcivirus ATCC VR-782. […] In our case we wanted to have an idea about the rate of killing and this is why we limited the test to 10 minutes.

Human Corona Virus 229E = settings: 10 minutes
[2] = system: H1N1 Influenza A, Strain A-California; assay: Towelette antiviral test, modified AATCC 100; settings: towelettes embedded with water based solution at 20 mg/L
Description: A number of other tests were performed against H1N1 Influenza A, Strain A-California, and Human Corona Virus 229E.

Compound | reduction relative to the control [1] [%] | percent reduction (Human Corona Virus 229E) [%] | reduction vs time zero control [2] [%]
[Cu+2] [Copper ions] | 82.22 | – | –
copper iodide | – | 99.99 | 99.7
